In ChEMBL document CHEMBL4507305, “Data for DCP probe TP-024” (2021):

Assays:
[1] = target: Muscarinic acetylcholine receptor M4 (Homo sapiens) (UniProt P08173); conditions: Compound concentration 10.0 uM
[2] = target: Serine/threonine-protein kinase 36 (Homo sapiens) (UniProt Q9NRP7); conditions: Compound concentration 1000.0 nM
[3] = target: Ribosomal protein S6 kinase alpha-3 (Homo sapiens) (UniProt P51812); conditions: Compound concentration 1000.0 nM
[4] = target: Interleukin-1 receptor-associated kinase 1 (Homo sapiens) (UniProt P51617); conditions: Compound concentration 1000.0 nM
[5] = target: Serine/threonine-protein kinase Nek10 (Homo sapiens) (UniProt Q6ZWH5); conditions: Compound concentration 1000.0 nM
[6] = target: Phosphatidylinositol 5-phosphate 4-kinase type-2 beta (Homo sapiens) (UniProt P78356); conditions: Compound concentration 1000.0 nM
[7] = target: Calcium/calmodulin-dependent protein kinase type II subunit alpha (Homo sapiens) (UniProt Q9UQM7); conditions: Compound concentration 1000.0 nM
[8] = target: Homeodomain-interacting protein kinase 2 (Homo sapiens) (UniProt Q9H2X6); conditions: Compound concentration 1000.0 nM
[9] = target: Serine/threonine-protein kinase 35 (Homo sapiens) (UniProt Q8TDR2); conditions: Compound concentration 1000.0 nM
[10] = target: Receptor-type tyrosine-protein kinase FLT3 (Homo sapiens) (UniProt P36888); conditions: Compound concentration 1000.0 nM
[11] = target: BMP-2-inducible protein kinase (Homo sapiens) (UniProt Q9NSY1); conditions: Compound concentration 1000.0 nM
[12] = target: Activin receptor type-1 (Homo sapiens) (UniProt Q04771); conditions: Compound concentration 1000.0 nM
[13] = test system: Receptor-type tyrosine-protein kinase FLT3 (Homo sapiens), P36888 [K663Q]; conditions: Compound concentration 1000.0 nM
[14] = target: Inhibitor of nuclear factor kappa-B kinase subunit beta (Homo sapiens) (UniProt O14920); conditions: Compound concentration 1000.0 nM
[15] = target: Phosphatidylinositol 4-phosphate 3-kinase C2 domain-containing subunit beta (Homo sapiens) (UniProt O00750); conditions: Compound concentration 1000.0 nM
[16] = target: Fibroblast growth factor receptor 2 (Homo sapiens) (UniProt P21802); conditions: Compound concentration 1000.0 nM
[17] = target: Activated CDC42 kinase 1 (Homo sapiens) (UniProt Q07912); conditions: Compound concentration 1000.0 nM
[18] = target: Mitogen-activated protein kinase kinase kinase 7 (Homo sapiens) (UniProt O43318); conditions: Compound concentration 1000.0 nM
[19] = target: Serine/threonine-protein kinase 32C (Homo sapiens) (UniProt Q86UX6); conditions: Compound concentration 1000.0 nM
[20] = target: TRAF2 and NCK-interacting protein kinase (Homo sapiens) (UniProt Q9UKE5); conditions: Compound concentration 1000.0 nM
[21] = target: Tyrosine-protein kinase BTK (Homo sapiens) (UniProt Q06187); conditions: Compound concentration 1000.0 nM
[22] = target: Macrophage colony-stimulating factor 1 receptor (Homo sapiens) (UniProt P07333); conditions: Compound concentration 1000.0 nM
[23] = target: Mitogen-activated protein kinase 12 (Homo sapiens) (UniProt P53778); conditions: Compound concentration 1000.0 nM
[24] = target: Cyclin-dependent kinase 9 (Homo sapiens) (UniProt P50750); conditions: Compound concentration 1000.0 nM
[25] = test system: Tyrosine-protein kinase ABL1 (Homo sapiens), P00519 [F317I]; conditions: Compound concentration 1000.0 nM
[26] = target: Cyclin-dependent kinase-like 1 (Homo sapiens) (UniProt Q00532); conditions: Compound concentration 1000.0 nM
[27] = target: Dual specificity tyrosine-phosphorylation-regulated kinase 1B (Homo sapiens) (UniProt Q9Y463); conditions: Compound concentration 1000.0 nM
[28] = target: Death-associated protein kinase 2 (Homo sapiens) (UniProt Q9UIK4); conditions: Compound concentration 1000.0 nM
[29] = test system: Epidermal growth factor receptor (Homo sapiens), P00533 [T790M]; conditions: Compound concentration 1000.0 nM
[30] = target: Myosin light chain kinase 2, skeletal/cardiac muscle (Homo sapiens) (UniProt Q9H1R3); conditions: Compound concentration 1000.0 nM
[31] = target: Insulin-like growth factor 1 receptor (Homo sapiens) (UniProt P08069); conditions: Compound concentration 1000.0 nM
[32] = target: Calcium/calmodulin-dependent protein kinase type II subunit delta (Homo sapiens) (UniProt Q13557); conditions: Compound concentration 1000.0 nM
[33] = target: 1-phosphatidylinositol 3-phosphate 5-kinase (Homo sapiens) (UniProt Q9Y2I7); conditions: Compound concentration 1000.0 nM
[34] = test system: Phosphatidylinositol 4,5-bisphosphate 3-kinase catalytic subunit alpha isoform (Homo sapiens), P42336 [H1047L]; conditions: Compound concentration 1000.0 nM
[35] = target: Activin receptor type-2A (Homo sapiens) (UniProt P27037); conditions: Compound concentration 1000.0 nM
[36] = target: Serine/threonine-protein kinase DCLK2 (Homo sapiens) (UniProt Q8N568); conditions: Compound concentration 1000.0 nM
[37] = target: Phosphatidylinositol 4-phosphate 5-kinase type-1 gamma (Homo sapiens) (UniProt O60331); conditions: Compound concentration 1000.0 nM
[38] = target: Serine/threonine-protein kinase PAK 6 (Homo sapiens) (UniProt Q9NQU5); conditions: Compound concentration 1000.0 nM
[39] = target: Serine/threonine-protein kinase 10 (Homo sapiens) (UniProt O94804); conditions: Compound concentration 1000.0 nM
[40] = target: Myosin-IIIb (Homo sapiens) (UniProt Q8WXR4); conditions: Compound concentration 1000.0 nM
[41] = target: Calcium/calmodulin-dependent protein kinase type 1B (Homo sapiens) (UniProt Q6P2M8); conditions: Compound concentration 1000.0 nM
[42] = test system: Receptor-type tyrosine-protein kinase FLT3 (Homo sapiens), P36888 [D835Y]; conditions: Compound concentration 1000.0 nM
[43] = target: Beta-2 adrenergic receptor (Homo sapiens) (UniProt P07550); conditions: Compound concentration 10.0 uM
[44] = target: Mitogen-activated protein kinase 13 (Homo sapiens) (UniProt O15264); conditions: Compound concentration 1000.0 nM
[45] = target: Serine/threonine-protein kinase tousled-like 2 (Homo sapiens) (UniProt Q86UE8); conditions: Compound concentration 1000.0 nM

Chain of Death-associated protein kinase 2 (Homo sapiens) (Q9UIK4 whole entry, looked up): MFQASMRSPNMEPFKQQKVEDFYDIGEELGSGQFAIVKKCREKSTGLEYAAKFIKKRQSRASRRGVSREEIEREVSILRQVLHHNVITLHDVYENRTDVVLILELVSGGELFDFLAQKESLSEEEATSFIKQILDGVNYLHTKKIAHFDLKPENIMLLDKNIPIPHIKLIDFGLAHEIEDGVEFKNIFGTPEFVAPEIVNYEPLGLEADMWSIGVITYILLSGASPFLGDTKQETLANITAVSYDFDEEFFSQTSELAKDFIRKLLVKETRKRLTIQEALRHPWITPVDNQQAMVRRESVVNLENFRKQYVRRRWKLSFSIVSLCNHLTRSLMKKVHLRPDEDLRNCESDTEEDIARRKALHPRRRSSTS
Chain of Serine/threonine-protein kinase PAK 6 (Homo sapiens) (Q9NQU5 whole entry, looked up): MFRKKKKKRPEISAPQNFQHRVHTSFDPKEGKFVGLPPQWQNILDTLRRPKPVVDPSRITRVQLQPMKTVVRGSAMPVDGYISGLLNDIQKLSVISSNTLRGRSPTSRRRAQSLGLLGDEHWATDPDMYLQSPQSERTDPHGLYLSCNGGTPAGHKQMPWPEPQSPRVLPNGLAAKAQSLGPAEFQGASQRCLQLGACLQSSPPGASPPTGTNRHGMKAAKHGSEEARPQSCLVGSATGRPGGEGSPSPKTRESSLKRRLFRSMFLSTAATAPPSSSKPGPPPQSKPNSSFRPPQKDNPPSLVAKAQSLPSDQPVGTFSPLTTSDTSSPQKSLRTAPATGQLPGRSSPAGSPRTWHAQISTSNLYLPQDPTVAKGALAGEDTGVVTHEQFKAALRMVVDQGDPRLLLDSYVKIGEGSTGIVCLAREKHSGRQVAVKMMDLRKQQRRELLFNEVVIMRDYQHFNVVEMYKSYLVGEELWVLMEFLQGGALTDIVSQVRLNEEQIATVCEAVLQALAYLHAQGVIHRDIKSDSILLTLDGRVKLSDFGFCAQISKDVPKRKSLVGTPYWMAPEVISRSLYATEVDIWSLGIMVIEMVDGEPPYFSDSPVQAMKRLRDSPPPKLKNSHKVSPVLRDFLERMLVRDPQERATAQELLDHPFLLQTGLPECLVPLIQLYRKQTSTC
Chain of Tyrosine-protein kinase ABL1 (Homo sapiens), P00519 [F317I] (P00519 whole entry F317I): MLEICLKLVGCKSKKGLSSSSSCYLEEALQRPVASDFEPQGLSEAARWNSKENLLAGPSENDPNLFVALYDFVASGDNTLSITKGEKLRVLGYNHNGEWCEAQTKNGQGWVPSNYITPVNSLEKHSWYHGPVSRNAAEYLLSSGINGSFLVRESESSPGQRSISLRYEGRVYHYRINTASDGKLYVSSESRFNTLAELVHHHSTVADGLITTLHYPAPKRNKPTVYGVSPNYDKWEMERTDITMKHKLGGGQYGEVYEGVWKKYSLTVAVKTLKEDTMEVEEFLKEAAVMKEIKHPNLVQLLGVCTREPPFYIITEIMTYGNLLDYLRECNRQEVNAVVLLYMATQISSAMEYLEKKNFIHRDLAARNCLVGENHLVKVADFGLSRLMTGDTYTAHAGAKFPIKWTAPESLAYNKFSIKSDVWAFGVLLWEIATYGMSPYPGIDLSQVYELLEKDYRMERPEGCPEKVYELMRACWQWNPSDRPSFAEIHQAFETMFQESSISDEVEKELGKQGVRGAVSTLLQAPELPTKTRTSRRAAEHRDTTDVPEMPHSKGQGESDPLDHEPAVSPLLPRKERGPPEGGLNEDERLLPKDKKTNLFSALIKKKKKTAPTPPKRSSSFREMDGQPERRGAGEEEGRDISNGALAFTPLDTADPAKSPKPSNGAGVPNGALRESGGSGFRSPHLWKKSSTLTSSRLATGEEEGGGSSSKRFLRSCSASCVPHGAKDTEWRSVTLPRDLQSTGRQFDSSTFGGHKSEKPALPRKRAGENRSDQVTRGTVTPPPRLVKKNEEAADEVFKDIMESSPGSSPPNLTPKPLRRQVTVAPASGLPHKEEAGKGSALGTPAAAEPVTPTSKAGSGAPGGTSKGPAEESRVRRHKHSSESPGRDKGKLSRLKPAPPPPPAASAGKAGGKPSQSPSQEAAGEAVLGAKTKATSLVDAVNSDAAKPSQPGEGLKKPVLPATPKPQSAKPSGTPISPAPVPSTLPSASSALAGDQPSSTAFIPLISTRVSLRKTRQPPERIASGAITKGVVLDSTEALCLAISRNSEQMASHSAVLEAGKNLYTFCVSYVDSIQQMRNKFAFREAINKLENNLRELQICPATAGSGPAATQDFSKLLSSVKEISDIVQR
Chain of Phosphatidylinositol 5-phosphate 4-kinase type-2 beta (Homo sapiens) (P78356 whole entry): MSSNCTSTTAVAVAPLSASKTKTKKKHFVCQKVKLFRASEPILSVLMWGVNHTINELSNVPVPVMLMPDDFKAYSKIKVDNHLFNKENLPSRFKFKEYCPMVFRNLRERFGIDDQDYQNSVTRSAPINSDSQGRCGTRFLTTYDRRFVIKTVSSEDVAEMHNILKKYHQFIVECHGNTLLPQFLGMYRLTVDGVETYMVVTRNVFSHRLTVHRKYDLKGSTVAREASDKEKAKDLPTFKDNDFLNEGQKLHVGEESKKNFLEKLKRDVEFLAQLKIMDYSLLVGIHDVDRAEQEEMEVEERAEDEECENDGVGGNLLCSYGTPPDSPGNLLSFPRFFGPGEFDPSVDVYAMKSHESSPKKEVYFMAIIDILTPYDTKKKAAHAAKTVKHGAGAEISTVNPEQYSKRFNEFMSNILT
Chain of Calcium/calmodulin-dependent protein kinase type II subunit delta (Homo sapiens) (Q13557 whole entry): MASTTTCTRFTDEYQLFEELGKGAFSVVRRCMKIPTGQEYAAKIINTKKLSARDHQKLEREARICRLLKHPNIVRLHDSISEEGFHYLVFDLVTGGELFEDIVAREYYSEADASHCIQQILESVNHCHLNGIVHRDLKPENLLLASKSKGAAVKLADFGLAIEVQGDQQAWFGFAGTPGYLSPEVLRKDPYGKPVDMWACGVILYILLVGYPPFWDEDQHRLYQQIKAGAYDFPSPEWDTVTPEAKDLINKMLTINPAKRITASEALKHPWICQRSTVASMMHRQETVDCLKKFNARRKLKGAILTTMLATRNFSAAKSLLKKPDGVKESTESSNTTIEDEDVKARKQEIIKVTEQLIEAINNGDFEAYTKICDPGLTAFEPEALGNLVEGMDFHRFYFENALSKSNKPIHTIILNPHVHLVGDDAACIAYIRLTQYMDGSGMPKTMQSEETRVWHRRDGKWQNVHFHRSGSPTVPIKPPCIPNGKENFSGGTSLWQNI
Chain of Macrophage colony-stimulating factor 1 receptor (Homo sapiens) (P07333 whole entry): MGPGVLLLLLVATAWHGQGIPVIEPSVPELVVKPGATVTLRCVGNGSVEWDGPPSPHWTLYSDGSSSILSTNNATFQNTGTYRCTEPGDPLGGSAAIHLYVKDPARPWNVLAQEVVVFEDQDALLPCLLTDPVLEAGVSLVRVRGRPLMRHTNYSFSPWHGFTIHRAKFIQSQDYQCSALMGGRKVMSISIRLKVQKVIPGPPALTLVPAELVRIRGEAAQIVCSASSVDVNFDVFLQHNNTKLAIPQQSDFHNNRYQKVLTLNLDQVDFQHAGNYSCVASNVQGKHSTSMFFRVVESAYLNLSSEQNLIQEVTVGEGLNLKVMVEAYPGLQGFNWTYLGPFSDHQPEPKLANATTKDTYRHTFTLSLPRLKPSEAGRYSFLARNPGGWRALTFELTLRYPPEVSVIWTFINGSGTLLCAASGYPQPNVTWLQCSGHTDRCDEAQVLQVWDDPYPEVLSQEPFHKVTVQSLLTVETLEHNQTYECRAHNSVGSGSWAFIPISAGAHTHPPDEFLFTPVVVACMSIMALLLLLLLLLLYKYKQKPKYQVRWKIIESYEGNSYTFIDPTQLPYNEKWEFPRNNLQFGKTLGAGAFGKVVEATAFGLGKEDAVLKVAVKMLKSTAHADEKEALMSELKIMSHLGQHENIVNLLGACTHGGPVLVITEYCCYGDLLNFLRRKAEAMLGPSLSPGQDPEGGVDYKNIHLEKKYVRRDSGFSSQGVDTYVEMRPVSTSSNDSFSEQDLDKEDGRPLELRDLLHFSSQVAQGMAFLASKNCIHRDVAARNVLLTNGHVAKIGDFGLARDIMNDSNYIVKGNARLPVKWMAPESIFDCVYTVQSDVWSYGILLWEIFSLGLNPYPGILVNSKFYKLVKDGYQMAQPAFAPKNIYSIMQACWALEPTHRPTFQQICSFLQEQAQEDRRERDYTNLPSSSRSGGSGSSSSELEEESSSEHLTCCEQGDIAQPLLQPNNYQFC
Chain of Interleukin-1 receptor-associated kinase 1 (Homo sapiens) (P51617 whole entry, looked up): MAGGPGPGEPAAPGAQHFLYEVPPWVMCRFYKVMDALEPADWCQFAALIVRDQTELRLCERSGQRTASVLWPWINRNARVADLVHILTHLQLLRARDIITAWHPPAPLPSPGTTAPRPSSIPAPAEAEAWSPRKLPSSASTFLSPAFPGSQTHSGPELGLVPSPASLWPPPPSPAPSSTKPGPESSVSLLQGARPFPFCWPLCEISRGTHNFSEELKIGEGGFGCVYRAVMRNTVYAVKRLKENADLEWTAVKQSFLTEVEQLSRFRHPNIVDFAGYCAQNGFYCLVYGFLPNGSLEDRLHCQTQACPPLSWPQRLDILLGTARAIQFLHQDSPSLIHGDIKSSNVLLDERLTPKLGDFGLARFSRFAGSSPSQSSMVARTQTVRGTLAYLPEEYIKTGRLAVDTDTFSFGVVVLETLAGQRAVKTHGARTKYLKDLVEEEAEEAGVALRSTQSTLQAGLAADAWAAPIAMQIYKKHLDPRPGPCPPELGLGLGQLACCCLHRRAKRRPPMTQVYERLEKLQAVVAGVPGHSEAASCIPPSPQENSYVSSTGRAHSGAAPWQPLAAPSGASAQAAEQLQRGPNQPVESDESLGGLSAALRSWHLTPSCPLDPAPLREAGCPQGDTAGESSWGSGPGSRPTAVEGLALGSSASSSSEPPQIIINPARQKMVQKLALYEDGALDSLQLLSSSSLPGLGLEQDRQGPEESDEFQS

Cc1cc(-n2nc(Cc3cc(F)cc(C(F)(F)F)c3)nc2C)ccc1C(N)=O [TP-024]
inactive: inhibition [1] 6.9% | residual activity [2] 100% | residual activity [3] 95% | residual activity [4] 100% | residual activity [5] 100% | residual activity [6] 100% | residual activity [7] 99% | residual activity [8] 100% | residual activity [9] 100% | residual activity [10] 100% | residual activity [11] 100% | residual activity [12] 100% | residual activity [13] 100% | residual activity [14] 92% | residual activity [15] 87% | residual activity [16] 100% | residual activity [17] 100% | residual activity [18] 100% | residual activity [19] 100% | residual activity [20] 100% | residual activity [21] 100% | residual activity [22] 100% | residual activity [23] 100% | residual activity [24] 100% | residual activity [25] 85% | residual activity [26] 71% | residual activity [27] 100% | residual activity [28] 95% | residual activity [29] 94% | residual activity [30] 91% | residual activity [31] 98% | residual activity [32] 100% | residual activity [33] 70% | residual activity [34] 87% | residual activity [35] 100% | residual activity [36] 100% | residual activity [37] 66% | residual activity [38] 100% | residual activity [39] 100% | residual activity [40] 100% | residual activity [41] 100% | residual activity [42] 100% | inhibition [43] -1.39% | residual activity [44] 100% | residual activity [45] 100%

Cc1nc(Cc2cccc(C(F)(F)F)c2)sc1-c1ccc(C(N)=O)nc1 [TP-024n]
inactive: inhibition [1] 2.94% | residual activity [2] 100% | residual activity [3] 100% | residual activity [4] 100% | residual activity [5] 100% | residual activity [6] 88% | residual activity [7] 91% | residual activity [8] 100% | residual activity [9] 100% | residual activity [10] 93% | residual activity [11] 100% | residual activity [12] 100% | residual activity [13] 88% | residual activity [14] 72% | residual activity [15] 82% | residual activity [16] 100% | residual activity [17] 100% | residual activity [18] 93% | residual activity [19] 87% | residual activity [20] 100% | residual activity [21] 100% | residual activity [22] 85% | residual activity [23] 100% | residual activity [24] 100% | residual activity [25] 83% | residual activity [26] 85% | residual activity [27] 100% | residual activity [28] 89% | residual activity [29] 98% | residual activity [30] 77% | residual activity [31] 100% | residual activity [32] 100% | residual activity [33] 75% | residual activity [34] 72% | residual activity [35] 85% | residual activity [36] 100% | residual activity [37] 84% | residual activity [38] 92% | residual activity [39] 100% | residual activity [40] 100% | residual activity [41] 100% | residual activity [42] 92% | inhibition [43] 2.07% | residual activity [44] 99% | residual activity [45] 82%
